We go through one compound from article PMC5218480 (PLoS ONE, 2017).

The subject of the test is MV-4-11 cells. Kind of test: Gene expression microarray analysis (Affymetrix PrimeView) and GSEA. In kind it is cell-based, human. Set-up: RFU PODN (11730768_x_at) / Fold change /veh PODN (11730768_x_at) / RFU LINC00158 (11744669_a_at) / Fold change /veh LINC00158 (11744669_a_at) / RFU DUSP10 (11751237_a_at) / Fold change /veh DUSP10 (11751237_a_at) / RFU ID3 (11757404_x_at) / Fold change /veh ID3 (11757404_x_at) / RFU PLEKHG5 (11737974_s_at) / Fold change /veh PLEKHG5 (11737974_s_at) / RFU LRRC4B (11730491_at) / Fold change /veh LRRC4B (11730491_at) / RFU GIMAP4 (11747438_a_at) / Fold change /veh GIMAP4 (11747438_a_at) / RFU KRT8 (11758183_x_at) / Fold change /veh KRT8 (11758183_x_at) / RFU CNN1 (11734310_a_at) / Fold change /veh CNN1 (11734310_a_at) / RFU VPS37D (11726825_at) / Fold change /veh VPS37D (11726825_at) / RFU C10orf10 (11716522_x_at) / Fold change /veh C10orf10 (11716522_x_at) / RFU KIR2DL2 /// KIR2DL4 /// KIR2DL5A /// KIR2DL5B /// KIR2DS1 /// KIR2DS2 /// KIR2DS3 /// KIR2DS4 /// KIR3DL3 /// KIR3DL3 /// KIR3DS1 (11738374_at) / Fold change /veh KIR2DL2 /// KIR2DL4 /// KIR2DL5A /// KIR2DL5B /// KIR2DS1 /// KIR2DS2 /// KIR2DS3 /// KIR2DS4 /// KIR3DL3 /// KIR3DL3 /// KIR3DS1 (11738374_at) / RFU C1QL1 (11718748_at) / Fold change /veh C1QL1 (11718748_at) / RFU TMPRSS4 (11747572_a_at) / Fold change /veh TMPRSS4 (11747572_a_at) / RFU HAMP (11756126_x_at) / Fold change /veh HAMP (11756126_x_at) / RFU RNFT2 (11725882_a_at) / Fold change /veh RNFT2 (11725882_a_at) / RFU NR4A2 (11747474_a_at) / Fold change /veh NR4A2 (11747474_a_at) / RFU ABCC12 (11746883_a_at) / Fold change /veh ABCC12 (11746883_a_at) / RFU TMEM136 (11760407_x_at) / Fold change /veh TMEM136 (11760407_x_at) / RFU CLDN22 /// WWC2 (11732394_at) / Fold change /veh CLDN22 /// WWC2 (11732394_at) / RFU HLA-DPB1 (11760878_x_at) / Fold change /veh HLA-DPB1 (11760878_x_at) / RFU SPINT1 (11716480_a_at) / Fold change /veh SPINT1 (11716480_a_at) / RFU GAP43 (11754022_s_at) / Fold change /veh GAP43 (11754022_s_at) / RFU A4GNT (11735810_at) / Fold change /veh A4GNT (11735810_at) / RFU PRB3 (11715151_x_at) / Fold change /veh PRB3 (11715151_x_at) / RFU TUBB4B (11761932_at) / Fold change /veh TUBB4B (11761932_at) / RFU CAPN14 (11732068_a_at) / Fold change /veh CAPN14 (11732068_a_at) / RFU TMCC2 (11721928_a_at) / Fold change /veh TMCC2 (11721928_a_at) / RFU IRGQ (11745062_a_at) / Fold change /veh IRGQ (11745062_a_at) / RFU FAM174B (11720279_a_at) / Fold change /veh FAM174B (11720279_a_at) / RFU TMPRSS4 (11748680_a_at) / Fold change /veh TMPRSS4 (11748680_a_at) / RFU FAM212B (11763350_a_at) / Fold change /veh FAM212B (11763350_a_at) / RFU PLEKHG5 (11743358_a_at) / Fold change /veh PLEKHG5 (11743358_a_at) / RFU ZSCAN30 (11745921_a_at) / Fold change /veh ZSCAN30 (11745921_a_at) / RFU CMKLR1 (11741424_a_at) / Fold change /veh CMKLR1 (11741424_a_at) / RFU LOC101060620 /// MAPK8IP1 (11723275_at) / Fold change /veh LOC101060620 /// MAPK8IP1 (11723275_at) / RFU SPTSSB (11747773_x_at) / Fold change /veh SPTSSB (11747773_x_at) / RFU PRSS12 (11739890_at) / Fold change /veh PRSS12 (11739890_at) / RFU BIN1 (11741810_x_at) / Fold change /veh BIN1 (11741810_x_at) / RFU WNT11 (11732464_a_at) / Fold change /veh WNT11 (11732464_a_at) / RFU C10orf10 (11716521_a_at) / Fold change /veh C10orf10 (11716521_a_at) / RFU C5orf56 (11738089_at) / Fold change /veh C5orf56 (11738089_at) / RFU CYB561 (11721691_x_at) / Fold change /veh CYB561 (11721691_x_at) / RFU ANKRD19P (11752326_a_at) / Fold change /veh ANKRD19P (11752326_a_at) / RFU OR2T12 /// OR2T33 /// OR2T8 (11738714_s_at) / Fold change /veh OR2T12 /// OR2T33 /// OR2T8 (11738714_s_at) / RFU VCAN (11748164_a_at) / Fold change /veh VCAN (11748164_a_at) / RFU JSRP1 (11732532_at) / Fold change /veh JSRP1 (11732532_at) / RFU KRTAP10-11 (11738290_x_at) / Fold change /veh KRTAP10-11 (11738290_x_at) / RFU MYO3A (11730013_a_at) / Fold change /veh MYO3A (11730013_a_at) / RFU EBF3 (11725865_a_at) / Fold change /veh EBF3 (11725865_a_at) / RFU CAMK2N1 (11719241_x_at) / Fold change /veh CAMK2N1 (11719241_x_at) / RFU C5orf56 (11738088_a_at) / Fold change /veh C5orf56 (11738088_a_at) / RFU OLFML3 (11715873_a_at) / Fold change /veh OLFML3 (11715873_a_at) / RFU LOC100653217 /// NTM (11731650_a_at) / Fold change /veh LOC100653217 /// NTM (11731650_a_at) / RFU MAPK11 (11762145_a_at) / Fold change /veh MAPK11 (11762145_a_at) / RFU FIZ1 (11724087_x_at) / Fold change /veh FIZ1 (11724087_x_at) / RFU OASL (11726364_x_at) / Fold change /veh OASL (11726364_x_at) / RFU SOX15 (11748057_x_at) / Fold change /veh SOX15 (11748057_x_at) / RFU CD79A (11719716_a_at) / Fold change /veh CD79A (11719716_a_at) / RFU HIST1H1D (11736915_at) / Fold change /veh HIST1H1D (11736915_at) / RFU CASKIN2 (11723855_a_at) / Fold change /veh CASKIN2 (11723855_a_at) / RFU LOC730098 (11760151_x_at) / Fold change /veh LOC730098 (11760151_x_at) / RFU OR4N2 (11742367_at) / Fold change /veh OR4N2 (11742367_at) / RFU PRRT2 (11749266_a_at) / Fold change /veh PRRT2 (11749266_a_at) / RFU SNX32 (11753110_a_at) / Fold change /veh SNX32 (11753110_a_at) / RFU CDHR5 (11726645_a_at) / Fold change /veh CDHR5 (11726645_a_at) / RFU RCAN1 (11760418_a_at) / Fold change /veh RCAN1 (11760418_a_at) / RFU FAM167A (11723789_a_at) / Fold change /veh FAM167A (11723789_a_at) / RFU FAM26E (11764081_at) / Fold change /veh FAM26E (11764081_at) / RFU ISYNA1 (11749810_s_at) / Fold change /veh ISYNA1 (11749810_s_at) / RFU ACY1 (11761880_at) / Fold change /veh ACY1 (11761880_at) / RFU 11764098_at / Fold change /veh 11764098_at / RFU SAMD14 (11745864_x_at) / Fold change /veh SAMD14 (11745864_x_at) / RFU NPB (11741838_a_at) / Fold change /veh NPB (11741838_a_at) / RFU TMPRSS6 (11731388_a_at) / Fold change /veh TMPRSS6 (11731388_a_at) / RFU KRTAP10-2 (11738614_at) / Fold change /veh KRTAP10-2 (11738614_at) / RFU ARHGAP8 /// PRR5-ARHGAP8 (11727945_x_at) / Fold change /veh ARHGAP8 /// PRR5-ARHGAP8 (11727945_x_at) / RFU KRTAP5-7 /// NADSYN1 (11734609_at) / Fold change /veh KRTAP5-7 /// NADSYN1 (11734609_at) / RFU RASL12 (11751679_a_at) / Fold change /veh RASL12 (11751679_a_at) / RFU CDKN2B (11736163_a_at) / Fold change /veh CDKN2B (11736163_a_at) / RFU PRF1 (11729649_at) / Fold change /veh PRF1 (11729649_at) / RFU, ZNF638 /// ZNF638-IT1 / Fold change vs veh, ZNF638 /// ZNF638-IT1 / RFU, PANK3 / Fold change vs veh, PANK3 / RFU, SH3YL1 / Fold change vs veh, SH3YL1 / RFU, ZEB2 / Fold change vs veh, ZEB2 / RFU, NRIP1 / Fold change vs veh, NRIP1 / RFU, PTTG1IP / Fold change vs veh, PTTG1IP / RFU, CAPN2 / Fold change vs veh, CAPN2 / RFU, MED14 / Fold change vs veh, MED14 / RFU, SNORA58 / Fold change vs veh, SNORA58 / RFU, C1orf63 / Fold change vs veh, C1orf63 / RFU, LRRFIP1 / Fold change vs veh, LRRFIP1 / RFU, NDUFAF7 / Fold change vs veh, NDUFAF7 / RFU, SLC12A2 / Fold change vs veh, SLC12A2 / RFU, IBTK / Fold change vs veh, IBTK / RFU, ESF1 / Fold change vs veh, ESF1 / Fold change vs veh, TMEM50B / RFU, TAOK1 / Fold change vs veh, TAOK1 / RFU, ACBD3 / Fold change vs veh, ACBD3 / RFU, TMA16 / Fold change vs veh, TMA16 / RFU, RWDD3 / Fold change vs veh, RWDD3 / RFU, BCAT1 / Fold change vs veh, BCAT1 / RFU, EDEM3 / Fold change vs veh, EDEM3 / RFU, TMEM33 / Fold change vs veh, TMEM33 / RFU, WDR75 / Fold change vs veh, WDR75 / RFU, AHCTF1 / Fold change vs veh, AHCTF1 / RFU, TFRC / Fold change vs veh, TFRC / RFU, ZDHHC17 / Fold change vs veh, ZDHHC17 / RFU, NOM1 / Fold change vs veh, NOM1 / RFU, ARL8B / Fold change vs veh, ARL8B / RFU, ZBTB11 / Fold change vs veh, ZBTB11 / RFU, TAMM41 / Fold change vs veh, TAMM41 / RFU, KIAA1704 /// LOC100996395 / Fold change vs veh, KIAA1704 /// LOC100996395 / RFU, ING1 / Fold change vs veh, ING1 / RFU, TRMT61B / Fold change vs veh, TRMT61B / RFU, FUBP3 / Fold change vs veh, FUBP3 / RFU, TP53 / Fold change vs veh, TP53 / RFU, TNKS2 / Fold change vs veh, TNKS2 / RFU, ZFP14 / Fold change vs veh, ZFP14 / RFU, ACTR2 / Fold change vs veh, ACTR2 / RFU, PPP3R1 / Fold change vs veh, PPP3R1 / RFU, PIK3R1 / Fold change vs veh, PIK3R1 / RFU, HNRNPA1 / Fold change vs veh, HNRNPA1 / RFU, RNF170 / Fold change vs veh, RNF170 / RFU, ZNF28 / Fold change vs veh, ZNF28 / RFU, RNGTT / Fold change vs veh, RNGTT / RFU, OGT / Fold change vs veh, OGT / RFU, BRD1 / Fold change vs veh, BRD1 / RFU, MARS / Fold change vs veh, MARS / RFU, ZNF655 / Fold change vs veh, ZNF655 / RFU, FAHD1 / Fold change vs veh, FAHD1 / RFU, BDP1 / Fold change vs veh, BDP1 / RFU, LRRCC1 / Fold change vs veh, LRRCC1 / RFU, ARID1A / Fold change vs veh, ARID1A / RFU, ZNF146 / Fold change vs veh, ZNF146 / RFU, ZNF330 / Fold change vs veh, ZNF330 / RFU, GPN3 / Fold change vs veh, GPN3 / RFU, C9orf123 / Fold change vs veh, C9orf123 / RFU, N4BP2L2 / Fold change vs veh, N4BP2L2 / RFU, ARFIP1 / Fold change vs veh, ARFIP1 / RFU, FAM179B / Fold change vs veh, FAM179B / RFU, BCL10 / Fold change vs veh, BCL10 / RFU, UHRF1BP1L / Fold change vs veh, UHRF1BP1L / RFU, BET1 / Fold change vs veh, BET1 / RFU, CNOT2 / Fold change vs veh, CNOT2 / RFU, ZNF268 / Fold change vs veh, ZNF268 / Fold change vs veh, ZNF507 / RFU, DGCR2 / Fold change vs veh, DGCR2 / RFU, WDSUB1 / Fold change vs veh, WDSUB1 / Fold change vs veh, HSP90B1 /// MIR3652 / RFU, ADSS / Fold change vs veh, ADSS / RFU, GK / Fold change vs veh, GK / RFU, ZNF148 / Fold change vs veh, ZNF148 / RFU, TAF9 / Fold change vs veh, TAF9 / RFU, SLC1A5 / Fold change vs veh, SLC1A5 / RFU, SLMO2 / Fold change vs veh, SLMO2 / RFU, ABCC4 / Fold change vs veh, ABCC4 / RFU, LOC101060439 /// RAP1B / Fold change vs veh, LOC101060439 /// RAP1B / RFU, RFX7 / Fold change vs veh, RFX7 / RFU, GTPBP10 / Fold change vs veh, GTPBP10 / RFU, CNEP1R1 / Fold change vs veh, CNEP1R1 / RFU, BIVM-ERCC5 /// ERCC5 / Fold change vs veh, BIVM-ERCC5 /// ERCC5 / RFU, ILF3 / Fold change vs veh, ILF3 / RFU 11762660_at / Fold change /veh 11762660_at / RFU VCAN (11757783_s_at) / Fold change /veh VCAN (11757783_s_at) / RFU DDX43 (11728927_at) / Fold change /veh DDX43 (11728927_at) / RFU KRT8 (11758188_x_at) / Fold change /veh KRT8 (11758188_x_at) / RFU NKD1 (11759106_at) / Fold change /veh NKD1 (11759106_at) / RFU SRD5A1 (11742802_a_at) / Fold change /veh SRD5A1 (11742802_a_at) / RFU TPSAB1 /// TPSB2 (11721975_s_at) / Fold change /veh TPSAB1 /// TPSB2 (11721975_s_at) / RFU GSTM3 (11746129_a_at) / Fold change /veh GSTM3 (11746129_a_at) / RFU IL23R (11737362_x_at) / Fold change /veh IL23R (11737362_x_at) / RFU TMEM51 (11727254_a_at) / Fold change /veh TMEM51 (11727254_a_at) / RFU PIWIL2 (11732686_x_at) / Fold change /veh PIWIL2 (11732686_x_at) / RFU ORM1 (11744905_x_at) / Fold change /veh ORM1 (11744905_x_at) / RFU CCDC152 (11743942_at) / Fold change /veh CCDC152 (11743942_at) / RFU ECM1 (11717891_a_at) / Fold change /veh ECM1 (11717891_a_at) / RFU IL23R (11748794_a_at) / Fold change /veh IL23R (11748794_a_at) / RFU TNFAIP8L3 (11732012_x_at) / Fold change /veh TNFAIP8L3 (11732012_x_at) / RFU MBOAT4 (11741988_at) / Fold change /veh MBOAT4 (11741988_at) / RFU 11764193_at / Fold change /veh 11764193_at / RFU TMEM53 (11763286_at) / Fold change /veh TMEM53 (11763286_at) / RFU MAGEB2 (11727129_at) / Fold change /veh MAGEB2 (11727129_at) / RFU TMEM200A (11744735_a_at) / Fold change /veh TMEM200A (11744735_a_at) / RFU CCDC152 (11751479_a_at) / Fold change /veh CCDC152 (11751479_a_at) / RFU FAM211A (11726209_a_at) / Fold change /veh FAM211A (11726209_a_at) / RFU RGS16 (11746705_a_at) / Fold change /veh RGS16 (11746705_a_at) / RFU VCAN (11755009_s_at) / Fold change /veh VCAN (11755009_s_at) / RFU RHOB (11743442_s_at) / Fold change /veh RHOB (11743442_s_at) / RFU RGS16 (11720943_a_at) / Fold change /veh RGS16 (11720943_a_at) / RFU RGS16 (11720944_at) / Fold change /veh RGS16 (11720944_at) / RFU, VPS4B / Fold change vs veh, VPS4B / RFU, CREB1 / Fold change vs veh, CREB1 / RFU, DNAJC13 / Fold change vs veh, DNAJC13 / RFU, GNAQ / Fold change vs veh, GNAQ / RFU, CDK5R1 / Fold change vs veh, CDK5R1 / RFU, ZRANB3 / Fold change vs veh, ZRANB3 / RFU, CUL4A / Fold change vs veh, CUL4A / RFU, CCNY / Fold change vs veh, CCNY / RFU, UFL1 / Fold change vs veh, UFL1 / RFU, COG3 / Fold change vs veh, COG3 / RFU, DIAPH2 / Fold change vs veh, DIAPH2 / RFU, SKA2 / Fold change vs veh, SKA2 / RFU, AFF3 / Fold change vs veh, AFF3 / RFU, LMF1 / Fold change vs veh, LMF1 / RFU, IPO11 / Fold change vs veh, IPO11 / RFU, DFFB / Fold change vs veh, DFFB / RFU, FOXP1 / Fold change vs veh, FOXP1 / RFU, CARD8 / Fold change vs veh, CARD8 / RFU, STRN3 / Fold change vs veh, STRN3 / RFU, ADK / Fold change vs veh, ADK / RFU, RASSF2 / Fold change vs veh, RASSF2 / RFU, WIPF1 / Fold change vs veh, WIPF1 / RFU, LARP1B / Fold change vs veh, LARP1B / RFU, RASA1 / Fold change vs veh, RASA1 / RFU, RB1 / Fold change vs veh, RB1 / RFU, PPFIA1 / Fold change vs veh, PPFIA1 / RFU, MAT2A / Fold change vs veh, MAT2A / RFU, CCT5 / Fold change vs veh, CCT5 / RFU, WDR92 / Fold change vs veh, WDR92 / RFU, CUX1 / Fold change vs veh, CUX1 / RFU, TTC7A / Fold change vs veh, TTC7A / RFU, TMEM135 / Fold change vs veh, TMEM135 / RFU, DEPTOR / Fold change vs veh, DEPTOR / RFU, CPM / Fold change vs veh, CPM / RFU, DNAJB6 / Fold change vs veh, DNAJB6 / RFU, CACNA2D3 / Fold change vs veh, CACNA2D3 / RFU, DTX4 / Fold change vs veh, DTX4 / RFU, TFCP2 / Fold change vs veh, TFCP2 / RFU, GMCL1 /// GMCL1P1 / Fold change vs veh, GMCL1 /// GMCL1P1 / RFU, AEBP2 / Fold change vs veh, AEBP2 / RFU, SNHG1 /// SNORD22 /// SNORD25 /// SNORD26 /// SNORD27 /// SNORD28 /// SNORD29 /// SNORD31 / Fold change vs veh, SNHG1 /// SNORD22 /// SNORD25 /// SNORD26 /// SNORD27 /// SNORD28 /// SNORD29 /// SNORD31 / Fold change (Aza/veh), C12orf56 (ProbeSet 11735607_a_at) / Fold change (ACY-1035/veh), C12orf56 (ProbeSet 11735607_a_at) / Fold change (Aza/veh), FGFR1OP (ProbeSet 11751329_s_at) / Fold change (ACY-1035/veh), FGFR1OP (ProbeSet 11751329_s_at) / Fold change (Aza/veh), VPS36 (ProbeSet 11739960_a_at) / Fold change (ACY-1035/veh), VPS36 (ProbeSet 11739960_a_at) / RFU SYPL1 (11715823_x_at) / Fold change /veh SYPL1 (11715823_x_at) / RFU IGFBP7 (11715501_s_at) / Fold change /veh IGFBP7 (11715501_s_at) / RFU REEP3 (11722064_at) / Fold change /veh REEP3 (11722064_at) / RFU IGLL1 (11728026_x_at) / Fold change /veh IGLL1 (11728026_x_at): dose or concentration left out as unconfirmed. The note with it: MV-4-11 cells, 48 hours.

The structures appear in SMILES notation.

`Nc1ccc(-c2cccs2)cc1NC(=O)c1ccc2c(c1)cc(C1CC1)n2CCN1CCOCC1` [ACY-1035]: the “RFU FAM174B (11720279_a_at)” value is 24.40 RFU.
